Here are results for 42 molecules from ChEMBL document CHEMBL5579790, “Development of novel β2-adrenergic receptor agonists for the stimulation of glucose uptake - The importance of chirality and ring size of cyclic amines” (Bioorg Med Chem Lett, 2024).

SMILES strings stand for the structures.

The target in the first assay is Beta-2 adrenergic receptor (Rattus norvegicus) (UniProt P10608). As to the kind of experiment: Agonist activity at beta2-adrenergic receptor in rat L6 cells transfected with GLUT4 assessed as stimulation of skeletal muscle glucose uptake at 10 uM relative to isoprenaline. It is filed as functional, cell-based.
Chain of Beta-2 adrenergic receptor (Rattus norvegicus) (P10608 whole entry, looked up): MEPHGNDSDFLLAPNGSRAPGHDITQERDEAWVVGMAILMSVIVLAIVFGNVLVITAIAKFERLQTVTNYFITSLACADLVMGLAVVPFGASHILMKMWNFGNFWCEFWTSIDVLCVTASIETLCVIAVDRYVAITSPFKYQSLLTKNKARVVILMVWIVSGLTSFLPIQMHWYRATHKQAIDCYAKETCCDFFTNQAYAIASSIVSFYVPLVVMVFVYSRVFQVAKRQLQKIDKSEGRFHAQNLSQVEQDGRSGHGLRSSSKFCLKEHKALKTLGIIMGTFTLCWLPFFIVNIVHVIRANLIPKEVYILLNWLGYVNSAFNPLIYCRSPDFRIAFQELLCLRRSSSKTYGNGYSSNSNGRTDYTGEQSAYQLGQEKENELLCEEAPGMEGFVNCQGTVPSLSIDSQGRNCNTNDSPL
Conditions: not given
Turning to `CCC[C@H]1C[C@H]([C@@H](O)c2cccc(F)c2)N1`, the Activity worked out at 37%.

`CCC[C@@H]1CCCC[C@@H]([C@H](O)c2cccc(F)c2)N1`: the Activity came to 12%.

Turning to `CCCCNC[C@@H](O)c1cccc(F)c1`, the Activity is below 10%.

As for `CCC[C@H]1CC[C@@H]([C@H](O)c2cccc(F)c2)N1`, the Activity amounted to 27%.

With `CCCCNC[C@@H](O)c1cccc(O)c1`, the Activity is below 10%.

Regarding `CCC[C@H]1CCCC[C@@H]([C@H](O)c2cccc(F)c2)N1`, the Activity came out at 19%.

Consider `CCC[C@H]1C[C@@H]([C@H](O)c2cccc(F)c2)N1`, for which the Activity amounted to 19%.

As for `CCC[C@H]1CCCC[C@H]([C@@H](O)c2cccc(F)c2)N1`, the Activity is 15%.

Regarding `CCC[C@H]1CCCC[C@@H]([C@@H](O)c2cccc(F)c2)N1`, the Activity stood at 39%.

As to `CCC[C@H]1CC[C@H]([C@@H](O)c2cccc(F)c2)N1`, the Activity was found to be 20%.

Consider `CCC[C@@H]1CCC[C@@H]([C@@H](O)c2cccc(F)c2)N1`, for which the Activity is below 10%.

As to `CCC[C@@H]1C[C@@H]([C@H](O)c2cccc(F)c2)N1`, the Activity worked out at 31%.

Regarding `CCC[C@@H]1CCCC[C@H]([C@H](O)c2cccc(F)c2)N1`, the Activity was 39%.

Regarding `CCC[C@@H]1CCCC[C@@H]([C@@H](O)c2cccc(F)c2)N1`, the Activity is below 10%.

For the molecule `CCC[C@H](C)NC[C@@H](O)c1cccc(O)c1`, the Activity was 32%.

Still in this assay, the particulars now being: filed as agonist.
For `CCC[C@H]1C[C@H]([C@H](O)c2cccc(F)c2)N1`, the Activity came out at 72%.

On to `CCC[C@H]1CCCC[C@H]([C@H](O)c2cccc(F)c2)N1`, for which the Activity was 47%.

In the case of `CCC[C@@H](C)NC[C@H](O)c1cccc(F)c1`, the Activity worked out at 90%.

For the molecule `CCC[C@@H](C)NC[C@H](O)c1cccc(O)c1`, the Activity was 130%.

Take `CCC[C@@H]1CCC[C@H]([C@@H](O)c2cccc(F)c2)N1`: the Activity came out at 50%.

With `CCC[C@@H]1CC[C@H]([C@@H](O)c2cccc(F)c2)N1`, the Activity was found to be 41%.

With `CCC[C@H]1CC[C@H]([C@H](O)c2cccc(F)c2)N1`, the Activity worked out at 52%.

Take `CCC[C@@H](C)NC[C@@H](O)c1cccc(O)c1`: the Activity came out at 53%.

Consider `CCC[C@@H]1CC[C@@H]([C@H](O)c2cccc(F)c2)N1`, for which the Activity is 43%.

`CCC[C@@H]1CCCC[C@H]([C@@H](O)c2cccc(F)c2)N1`: the Activity amounted to 52%.

Take `CCC[C@H]1CCC[C@H]([C@@H](O)c2cccc(F)c2)N1`: the Activity amounted to 56%.

For the molecule `CCC[C@H]1CCC[C@@H]([C@H](O)c2cccc(F)c2)N1`, the Activity is 67%.

Turning to `CCC[C@@H]1C[C@H]([C@@H](O)c2cccc(F)c2)N1`, the Activity was 53%.

Take `CCC[C@H]1CCC[C@@H]([C@@H](O)c2cccc(F)c2)N1`: the Activity worked out at 48%.

For the molecule `CCC[C@@H]1CCC[C@H]([C@H](O)c2cccc(F)c2)N1`, the Activity was 52%.

For the molecule `CCC[C@H](C)NC[C@H](O)c1cccc(F)c1`, the Activity came to 75%.

Consider `CCCCNC[C@H](O)c1cccc(O)c1`, for which the Activity was found to be 63%.

Take `CCC[C@@H]1CCC[C@@H]([C@H](O)c2cccc(F)c2)N1`: the Activity came out at 42%.

In the case of `CCCCNC[C@H](O)c1cccc(F)c1`, the Activity was found to be 57%.

Consider `CCC[C@@H]1C[C@H]([C@H](O)c2cccc(F)c2)N1`, for which the Activity was 103%.

`CCC[C@H]1CCC[C@H]([C@H](O)c2cccc(F)c2)N1`: the Activity worked out at 54%.

For the molecule `CCC[C@H]1CC[C@@H]([C@@H](O)c2cccc(F)c2)N1`, the Activity turned out to be 64%.

`CCC[C@@H]1CC[C@H]([C@H](O)c2cccc(F)c2)N1`: the Activity worked out at 110%.

In the case of `CCC[C@H]1C[C@@H]([C@@H](O)c2cccc(F)c2)N1`, the Activity worked out at 45%.

`CCC[C@H](C)NC[C@H](O)c1cccc(O)c1`: the Activity was determined as 79%.

Turning to `CCC[C@@H]1C[C@@H]([C@@H](O)c2cccc(F)c2)N1`, the Activity was determined as 47%.

In the case of `CCC[C@@H]1CC[C@@H]([C@@H](O)c2cccc(F)c2)N1`, the Activity was determined as 57%.
